Experiment [1] has as its system A549. In words: Antiproliferative activity against human A549 cells assessed as inhibition of cell growth under hypoxia condition. Format: functional, cell-based.
The next experiment deals with KB. In words: Antiproliferative activity against human KB cells assessed as inhibition of cell growth under hypoxia condition. Format: functional, cell-based.
The test system of another experiment is SMMC-7721. In words: Antiproliferative activity against human SMMC-7721 cells assessed as inhibition of cell growth incubated for 72 hrs by MTT assay. Format: functional, cell-based. To be noted: SMMC-7721, 72 h. In general terms: Tetrazolium dyes change colour on reduction, which living cells bring about.
Experiment [2] concerns K562. In words: Induction of apoptosis in human K562 cells assessed as increase in apoptotic cells under normoxia condition relative to control. Format: functional.
Experiment [3] deals with A549. In words: Antiproliferative activity against human A549 cells assessed as inhibition of cell growth incubated for 72 hrs by MTT assay. Format: functional, cell-based. To be noted: A549, 72 h.
Experiment [4] relates to K562. In words: Induction of apoptosis in human K562 cells assessed as increase in apoptotic cells under hypoxia condition relative to control. Format: functional.
A further experiment concerns TMD8. In words: Antiproliferative activity against human TMD8 cells assessed as inhibition of cell growth incubated for 3 days by WST-1 assay. Format: functional, cell-based. To be noted: TMD8, 72 h.
Experiment [5] can be described thus: Antiproliferative activity against human HBL1 cells assessed as inhibition of cell growth incubated for 3 days by WST-1 assay. Format: functional, cell-based. To be noted: HBL1, 72 h.
Experiment [6] concerns the target T1, Tyrosine-protein kinase SYK (Homo sapiens, UniProt P43405). In words: Inhibition of human SYK using 5-Fluo-Ahx-GAPDYENLQELNKK-Amid as substrate in presence of ATP by microfluidic mobility shift assay.
The next experiment deals with OCI-Ly10. In words: Antiproliferative activity against human OCI-Ly10 cells assessed as inhibition of cell growth incubated for 3 days by WST-1 assay. Format: functional, cell-based. To be noted: OCI-Ly10, 72 h.
Experiment [7] addresses T1, Tyrosine-protein kinase SYK. Put plainly: Inhibition of SYK in human Ramos cells assessed as reduction in anti IgM-induced phosphorylation of BLNK by flow cytometry assay. Format: cell-based. In general terms: In flow cytometry, cells or beads pass a laser one at a time.
The next experiment deals with MDA-MB-468. Put plainly: Antiproliferative activity against human MDA-MB-468 cells assessed as reduction in cell viability. Format: functional.
The test system of the next experiment is OVCAR-4. Put plainly: Antiproliferative activity against human OVCAR-4 cells assessed as cell growth inhibition. Format: functional, cell-based.
In another experiment the test system is PC-3. In words: Antiproliferative activity against human PC-3 cells assessed as inhibition of cell growth measured after 48 hrs by MTT assay. Format: functional, cell-based. To be noted: PC-3, 48 h.
The next experiment relates to CAKI-1. In words: Antiproliferative activity against human CAKI-1 cells assessed as inhibition of cell growth. Format: functional, cell-based.
Experiment [8] concerns MCF7. Put plainly: Antiproliferative activity against human MCF7 cells assessed as inhibition of cell growth measured after 48 hrs by MTT assay. Format: functional, cell-based. To be noted: MCF7, 48 h.
Experiment [9] concerns NCI-H460. Put plainly: Antiproliferative activity against human NCI-H460 cells assessed as inhibition of cell growth measured after 48 hrs by MTT assay. To be noted: NCI-H460, 48 h. Format: functional, cell-based.
Experiment [10] addresses Fibroblast growth factor receptor (Homo sapiens, UniProt P22607+P11362+P22455+P21802). Put plainly: Inhibition of FGFR (unknown origin). Format: protein assay.
The next experiment relates to SF-268. Put plainly: Antiproliferative activity against human SF-268 cells assessed as inhibition of cell growth. Format: functional, cell-based.
For experiment [11], the system named is MCF7. In words: Antiproliferative activity against human MCF7 cells assessed as inhibition of cell growth. Format: functional, cell-based.
The test system of experiment [12] is NCI-H460. Put plainly: Antiproliferative activity against human NCI-H460 cells assessed as inhibition of cell growth. Format: functional, cell-based.
Experiment [13] relates to Panel NCI-60 (60 carcinoma cell lines). Put plainly: Antiproliferative activity against human Panel NCI-60 (60 carcinoma cell lines) cells assessed as inhibition of cell growth. Format: functional, cell-based.

Each structure is given as a SMILES string.

The IC50 is the midpoint of a concentration-inhibition curve. As to `COCNc1n[n+]([O-])c2ccccc2[n+]1[O-]`, the IC50 in the experiment with A549 [1] and with KB was 2.7 µM throughout.
With `CCOCNc1n[n+]([O-])c2ccccc2[n+]1[O-]`, the IC50 in the experiment on SMMC-7721 is 3.12 µM; in the experiment with KB it was 4.09 µM; in the experiment on A549 [3] it was 3.12 µM. Moreover, the Activity in the experiment on K562 [2] was 9.5%; in the experiment with K562 [4], 32.11%.
`NC(=O)c1nnc(N[C@@H]2CCCC[C@@H]2N)nc1Nc1cccc2cc[nH]c12`: the IC50 with TMD8 is 0.281 µM; in experiment [5], 0.105 µM; in experiment [6] it was 0.0008 µM; in the experiment with OCI-Ly10, 0.025 µM; in experiment [7], 0.014 µM.
For orientation: GI50 means the concentration giving 50% growth inhibition. As for `CC(C)c1ccc(-c2nn3nnc4ccccc4c3nc2=O)cc1`, the GI50 in the experiment on MDA-MB-468 is 0.41 µM.
Regarding `Cc1nn(C)c2nn3nnnc3nc12`, the IC50 turned out to be 1.12 µM in the experiment on OVCAR-4; 0.4 µM with PC-3; 1.12 µM with CAKI-1; 0.4 µM with MCF7 [8]; 0.4 µM in the experiment with NCI-H460 [9].
On to `CCn1c(=O)c(-c2cc(OC)cc(OC)c2)cc2nnc(Nc3ccncc3)nc21`, for which the IC50 in experiment [10] amounted to 0.35 µM.
`Cc1ccc(C2=NN=C(/C(C#N)=N/Nc3sc4c(c3C#N)CCCC4)N(Nc3ccccc3)C2)cc1`: the values for the IC50 with SF-268, in the experiment on MCF7 [11] and with NCI-H460 [12] were 8.3 µM, 12.4 µM and 6.8 µM, respectively.
On to `Cc1c(C#N)c2nnc(C(N)=O)c(N)n2c1-c1ccccc1`, for which the figures for the IC50 (in the experiment with OVCAR-4; in experiment [13]) were 2.77 µM and 3.34 µM, respectively.

Values taken from ChEMBL document CHEMBL5260813, “An overview on the recent developments of 1,2,4-triazine derivatives as anticancer compounds” (Eur J Med Chem, 2017).
